“Also recorded” adds a separate entry of the source.
B1: MFGE8: milk fat globule EGF factor 8 protein, supplemented to microglia at 50 ng/ml (protein, UniProt Q08431 24-387, looked up)
Lactadherin: LDICSKNPCHNGGLCEEISQEVRGDVFPSYTCTCLKGYAGNHCETKCVEPLGLENGNIANSQIAASSVRVTFLGLQHWVPELARLNRAGMVNAWTPSSNDDNPWIQVNLLRRMWVTGVVTQGASRLASHEYLKAFKVAYSLNGHEFDFIHDVNKKHKEFVGNWNKNAVHVNLFETPVEAQYVRLYPTSCHTACTLRFELLGCELNGCANPLGLKNNSIPDKQITASSSYKTWGLHLFSWNPSYARLDKQGNFNAWVAGSYGNDQWLQVDLGSSKEVTGIITQGARNFGSVQFVASYKVAYSNDSANWTEYQDPRTGSSKIFPGNWDNHSHKKNLFETPILARYVRILPVAWHNRIALRLELLGC

Experiments:
[1] = system: neurons differentiated from ReN cells; test: PS exposure by Annexin V-FITC binding; type: cell-based, human; conditions: treatment for 3 days at 10 μM or 20 μM
Description: The most significant biochemical change caused by ABCD1 mutations is increased VLCFA levels including free fatty acid and LPC (in particular C24:0 and C26:0) in plasma and tissues. In order to determine whether neurons exposed to high VLCFA levels have PS exposure on their surfaces, neurons differentiated from ReN cells were treated with both C26:0 free fatty acid (FFA C26:0) and LPC C26:0 and then determined the PS exposure by Annexin V-FITC binding. Immortalized hNPC cell line ReNcell VM (ReN) was used to differentiate into neurons according to a published protocol (Kim et al., 2015). Simply, ReN cells were grown in proliferation medium (DMEM/F12 (Gibco/Life Technologies) with 2 μg/ml heparin (stock, STEMCELL Technologies), 2% B27 (Life Technologies), 20 ng/ml EGF, 20 ng/ml bFGF and 1% of 100× penicillin/streptomycin (Gibco/Life Technologies) until confluency. For differentiation, 3×10^4 cells were seeded on matrigel-coated (1:100 dilution in DMEM/F12) 8 well chamber slides and grown in differentiation medium (DMEM/F12 (Gibco/Life Technologies) with 2 μg/ml heparin (stock, STEMCELL Technologies), 2% B27 (Life Technologies) and 1% of 100× penicillin/streptomycin (Gibco/Life Technologies) for 2-3 weeks prior to co-culture with microglia.

[2] = system: neurons differentiated from ReN cells; test: Cleaved-caspase and Tuj 1 staining after VLCFA treatment; type: cell-based, human; conditions: for cleaved-caspase staining (late apoptosis): differentiated ReN neurons after FFA C26:0 or LPC C26:0 treatment
MFGE8 [3] = test: MFGE8 gene expression in N9 microglia; type: cell-based; conditions: 30 uM, 3 days
Description: (§1) In order to learn whether microglial changes seen in vivo were primary or secondary to axon degeneration, microglia was isolated from postnatal mice and molecular changes in unstimulated conditions was assessed as well as after LPS challenge. Microglia cultures were prepared as previously described (Tamashiro et al., 2012). Briefly, mixed glial cultures (˜95% astrocytes, ˜5% microglia) were prepared from the brain tissue of 1-3 day old mice. The tissue was trypsinized with 0.05% trypsin, and the cells were resuspended in glia complete medium DMEM (Lonza) supplemented with 10% fetal bovine serum (FBS), 100 IU/ml penicillin, 100 μg/ml streptomycin and 2 mM L-Glutamine. After 10-14 days in culture, microglia were isolated from the mixed glial cultures by the shake-off procedure. Specifically, loosely attached microglia were obtained from an incubator shaker at 250 rpm for 2 h at 37° C., the cell-containing medium was centrifuged at 1100 rpm for 3 minutes to collect microglia for subsequent culture. N9 microglia cells were cultured in RPMI 1640 medium supplemented with 10% FBS.
After observing an unexpected increase of phagocytosis-related biomarkers at the tissue level, whether gene expression of these markers would be altered in vitro was examined. Total RNA from cells or tissues were isolated using Qiagen RNeasy Mini Kit (Qiagen). First-strand cDNA synthesis used 100 ng random primer (Life Technologies), […], 10 mM dNTP, and 200 units of reverse transcriptase (Life Technologies) per 20 μL reactions. PCRs were performed in duplicates in a 25 μl final volume by using SYBR Green master mix from Applied Biosystems (Life Technologies). The data was analyzed by calculating the delta Ct value between the tested gene and an internal control.
In order to examine whether VLCFA has any effect on MFGE8 expression, microglial cell lines (N9) were treated with 30 uM FFA C26:0, LPC C16:0 and LPC C26:0 separately for 3 days.

MFGE8 [4] = test: MFGE8 gene expression in primary isolated microglia; type: cell-based, mouse; conditions: primary microglia from WT and Abcd1−/− mice, 15 uM
Description: as §1
After observing an unexpected increase of phagocytosis-related biomarkers at the tissue level, whether gene expression of these markers would be altered in vitro was examined. […] The data was analyzed by calculating the delta Ct value between the tested gene and an internal control. […]

MFGE8 [5] = test: MFGE8 protein secretion in primary isolated microglia (ELISA); type: cell-based, mouse; conditions: primary microglia from WT and Abcd1−/− mice, 15 uM
Description: as §1
An ELISA assay detected 2-fold higher MFGE8 protein secretion into media by Abcd1−/− microglia (FIG. 4D, P<0.05; MFGE8 and TNFa level in culture medium and spinal cord homogenate were measured using MFGE8 and TNFa ELISA kit (R&D) according to manufacturer's instructions). […]

[6] = system: differentiated ReN cells in the co-culture system with primary Abcd1−/− microglia; test: Co-culture of differentiated neurons with primary Abcd1−/− microglia; type: cell-based
Description: As a bridging protein, MFGE8 tightly binds to exposed phosphatidylserine on surface membranes of stressed neurons and opsonizes them for phagocytosis. Indeed, in co-culture, Abcd1−/− microglia increased phagocytosis of phosphatidylserine-exposing neurons in both unstimulated and LPS-challenged conditions (FIG. 4E). For the co-culture of microglia and neurons, isolated microglia were seeded on top of differentiated neurons and co-cultured for 4 days with or without supplementation of VLCFA. For VLCFA supplementation, hexacosanoic acid (FFA C26:0) and Lysophosphatidylcholine (LPC) C16:0 and C26:0 (Avanti polar lipid) were solubilized in 50 mg/ml Methyl-β-cyclodextrin to make 3 mM stock solution and then supplemented into culture medium to reach designated concentration with Methyl-β-cyclodextrin as vehicle control. […] Tuj-1 immunofluoresece and degenerated axons were quantified in each group.
The most significant biochemical change caused by ABCD1 mutations is increased VLCFA levels including free fatty acid and LPC (in particular C24:0 and C26:0) in plasma and tissues. In order to determine whether neurons exposed to high VLCFA levels have PS exposure on their surfaces, neurons differentiated from ReN cells were treated with both C26:0 free fatty acid (FFA C26:0) and LPC C26:0 and then determined the PS exposure by Annexin V-FITC binding. […]

[7] = system: primary microglia from Abcd1−/− mice; test: Microglial phagocytosis assay (PS exposing SH-SY5Y neurons seeded on microglia); type: cell-based, mouse; conditions: primary Abcd1−/− microglia pretreated 12 hours; MFGE8 at 50 ng/ml; 4 hours co-culture
Description: To validate the impact of MFGE8, primary microglia from Abcd1−/− mice were pretreated with either MFGE8 (50 ng/ml) or MFGE8 antibody for 12 hours and then phagocytosis was assessed by performing a microglial phagocytosis assay. Microglia were seeded in 8-well chamber (7×10^4/well in complete medium) and cultured for 24 hours. SH-SY5Y cells were treated with 100 uM H2O2 for 12 hours to induce phosphatidylserine (PS) exposure on cell surface. Floating SH-Sy5Y cells were then collected by centrifuge at 1000 g for 3 minutes, resuspended in serum free medium and stained with 3 μM CMTPX (red)(Life Science Technologies)(1:1000 dilution) for 30 minutes. A portion of the floating cells was subjected to Annexin V-FITC staining to confirm the exposure of phosphatidylserine. The remnant was washed twice and seeded (same amount as microglia) on top of the microglial layer. After 4 hours co-culture, cells were washed with PBS and fixed with 4% paraformaldehyde (PFA) for 15 min at room temperature. Microglia were then stained with IBA1 antibody (Wako) overnight followed by Alexa Fluor-488 conjugated second antibody. For quantification, 5 random images were taken from each chamber well using a confocal microscope (Zeiss). The total number of phagocytosed particles as well as cell-sized particles was counted and divided by microglia cell number.

| Molecule | PS exposure on cell surface (Annexin V-FITC) [1] | cleaved-caspase staining (late apoptosis) [2] | neuronal marker Tuj 1 morphology ([2]; differentiated ReN neurons after LPC C26:0 treatment) | MFGE8 mRNA expression (MFGE8 [3]) | MFGE8 expression at mRNA level (MFGE8 [4]) | MFGE8 expression at protein level (secretion) (MFGE8 [5]) | decrease of Tuj 1 expression ([6]; 15 uM LPC C26:0, co-culture 4 days) | axon degeneration (quantification of degenerated axons) ([6]; co-culture system with LPC C26:0 supplementation, with or without MFGE8 antibody) | microglial phagocytosis of PS exposing neurons [7] |
| --- | --- | --- | --- | --- | --- | --- | --- | --- | --- |
| CCCCCCCCCCCCCCCCCCCCCCCCCC(=O)OC[C@@H](O)COP(=O)([O-])OCC[N+](C)(C)C [LPC C26:0, Lysophosphatidylcholine (LPC) C26:0] | remarkable dose dependent PS exposure; also recorded: showed exposure of phosphatidylserine (PS) | did not reveal a notable positive signal; also recorded: little late apoptosis | did not show significant morphological changes | significantly increased | significant increases | significant increases | 20% | increased axon degeneration |  |
| CCCCCCCCCCCCCCCC(=O)OC[C@@H](O)COP(=O)([O-])OCC[N+](C)(C)C [LPC C16:0, Lysophosphatidylcholine (LPC) C16:0] |  |  |  | did not have an effect |  |  |  |  |  |
| CCCCCCCCCCCCCCCCCCCCCCCCCC(=O)O [FFA C26:0, hexacosanoic acid] | did not induce significant PS exposure | did not reveal a notable positive signal |  | did not have an effect |  |  |  |  |  |
| B1 |  |  |  |  |  |  |  |  | significant increase; also recorded: dramatically increased |
